{"source": "patent US20250275944A1", "about": "“RELATIVE UNDERSUPPLY OF AN AMYLOID BETA AGGREGATION INHIBITOR FOR IMPROVED DETOXIFYING EFFECTS” (Galimedix Therapeutics Inc, priority 2022, published 2025)", "key": {"[1]": {"target": "T1, Aβ1-42 monomers (Homo sapiens, UniProt P05067)", "T1 construct": "purchased American Peptide Company, Sunnyvale, CA, USA; host or cells: synthetic peptide", "T1 sequence (P05067 672-713 limits assumed)": "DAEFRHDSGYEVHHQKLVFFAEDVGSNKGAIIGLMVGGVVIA", "assay": "Surface Plasmon Resonance (SPR) binding of compound (1) to immobilized Aβ1-42 monomers (Biacore X100)", "description": "FIG. 1 Represents a graphical illustration of compound (1)'s target affinity to amyloid beta Aβ1-42 monomers using Surface Plasmon Resonance (SPR). Synthetic Aβ1-42 was used for this binding assay performed with a Biacore X100 biosensor instrument equipped with two flow cells. Aβ1-42 was covalently coupled to one flow cell of CM7 sensor chips using an amine coupling kit. HBS-EP was used as assay running buffer. The analyte compound (1) was injected over the sensor chip in concentrations ranging from 0.3 nM up to 1000 nM at a flow rate of 10 μL/min for 180 sec at 25° C. […]\nThe aim of this experiment was to evaluate the target affinity of compound (1) to misfolded Aβ1-42 monomers. The affinity was determined using in vitro Surface Plasmon Resonance (SPR) technology. […]\nThe resonance units (RUs) elicited by the compound injected into the ethanolamine control flow cell was set as reference response and subtracted from the RUs elicited by the same compound injected to the Aβ saturated flow cell. […] The dissociation equilibrium constant KD of the analyte to the immobilized Aβ was determined from the steady-state levels estimating the maximum RU Rmax and calculating the KD as the concentration of the compound that elicited one-half of the Rmax."}, "[2]": {"assay": "Pharmacokinetics in the rat brain: microdialysis of brain interstitial fluid (prefrontal cortex), HPLC-MS/MS", "assay_type": "in vivo", "description": "FIG. 2 Represents a graphical illustration of compound (1)'s pharmacokinetics in the rat brain. Compound (1) was administered as subcutaneous (s.c.) injection at doses of 0.4 mg/kg (∇) and […] (O, Δ). A microdialysis probe has been placed in the prefrontal cortex of these adult male Sprague Dawley rats to measure the concentration of compound (1) in the brain interstitial fluid (ISF) using a HPLC system with MS/MS detector. The dialysate samples were collected at a flow rate of 0.10 μL/min with a carrier flow rate of 0.8 μL/min. The animals were either anesthetized or awake and freely moving. Microdialysis data over a period of 360 min are depicted on a linear scale as means of 4 measurements±SEM.\nThe aim of this experiment was to evaluate the pharmacokinetics of compound (1) in the rat brain. Compound (1) was administered subcutaneously to anesthetized or awake and freely moving animals. A microdialysis probe has been placed in the prefrontal cortex of these adult male Sprague Dawley rats to measure the concentration of compound (1) in the brain interstitial fluid (ISF) using a HPLC system with MS/MS detector."}}, "note": "Non-standard residues stand in square brackets, D forms with d. Residues, ends and D or L forms follow the SMILES beside them. Aib = CC(C)(N)C(=O)O"}
{"smiles": "CC(C)(NC(=O)[C@H](N)Cc1c[nH]c2ccccc12)C(N)=O", "note": "[compound (1), (2R)-2-amino-N-(1-carbamomyl-1-methlyethyl)-3-(1H-indol-3-yl) propanamide] (H-[dW]-[Aib]-NH2)", "values": [{"measurement": "Kd", "setting": "[1]; SPR steady state, 25° C, HBS-EP, 0.3-1000 nM, n=4, read-out: KD (dissociation constant) at Aβ1-42 monomers", "value": "2.5 ± 0.6", "unit": "nM"}, {"measurement": "affinity to the target compared to GAL-101 (fold stronger)", "setting": "[1]; compound (1) vs GAL-101", "value": 4, "unit": "fold"}, {"measurement": "peak brain concentration (extracellular space of the brain)", "setting": "[2]; s.c. 0.4 mg/kg", "value": 10, "unit": "nM"}, {"measurement": "brain concentration (brain ISF)", "setting": "[2]; s.c. 2 mg/kg", "value": "ca. 60 nM"}]}
